From patent US7026281B1, “Antagonistic analogs of GH-RH inhibiting IGF-I and -II” (The Administrators of the Tulane Educational Fund, priority 1998, dated 2006)
pKi: −log10 of the molar value. Square brackets hold non-standard residues; d marks the D form. Peptide text beside a SMILES is read from it. * marks the point of attachment. Phe(4-Cl) = N[C@@H](Cc1ccc(Cl)cc1)C(=O)O; hArg = N=C(N)NCCCC[C@H](N)C(=O)O; Nle = CCCC[C@H](N)C(=O)O; Abu = CC[C@H](N)C(=O)O; PhAc = O=C(Cc1ccccc1)*

Key:
[1] = target: T1, rat pituitary GH-RH receptors (Rattus norvegicus, UniProt Q02644); test: GH-RH radioreceptor binding assay, rat anterior pituitary membrane homogenates; conditions: for pKi: competition with [His1,125I-Tyr10,Nle27]hGH-RH(1–32)NH2; for R.A. (relative affinity compared to Standard antagonist): ratio of Ki values
T1 construct: from tissue; host or cells: anterior pituitary of male Sprague-Dawley rats, crude membrane homogenates
T1 sequence (Q02644 23-464): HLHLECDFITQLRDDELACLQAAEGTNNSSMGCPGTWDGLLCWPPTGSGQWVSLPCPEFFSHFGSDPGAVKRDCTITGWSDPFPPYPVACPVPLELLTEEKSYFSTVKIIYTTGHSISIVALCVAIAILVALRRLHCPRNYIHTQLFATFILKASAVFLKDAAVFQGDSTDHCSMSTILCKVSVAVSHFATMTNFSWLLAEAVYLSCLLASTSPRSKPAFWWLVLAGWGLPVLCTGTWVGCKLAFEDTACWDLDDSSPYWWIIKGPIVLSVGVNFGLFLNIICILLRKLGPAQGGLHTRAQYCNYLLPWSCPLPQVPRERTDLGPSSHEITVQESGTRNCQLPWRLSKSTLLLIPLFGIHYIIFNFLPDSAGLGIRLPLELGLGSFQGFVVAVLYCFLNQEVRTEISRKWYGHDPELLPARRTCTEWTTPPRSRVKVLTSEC
Experimental: GH-RH Binding Assay. A sensitive radioreceptor binding assay was developed to determine the binding characteristics of the antagonists of GH-RH (G. Halmos, A. V. Schally et al., Receptor 3, 87–97, 1993), hereby incorporated by reference. The assay is based on binding of labelled [His^1,Nle^27]hGH-RH(1–32)NH2 to rat anterior pituitary membrane homogenates. Iodinated derivatives of [His^1,Nle^27]hGH-RH(1–32)NH2 are prepared by the chloramine-T method (F. C. Greenwood et al., Biochemistry 89:114–123, 1963), hereby incorporated by reference. Pituitaries from male Sprague-Dawley rats (250–300 g) are used to prepare crude membranes. For saturation binding analyses, membrane homogenates are incubated with at least 6 concentrations of [His^1,^125I-Tyr^10,Nle^27]hGH-RH(1–32) NH2, ranging from 0.005 to 0.35 nM in the presence or absence of excess unlabelled peptide (1 μM).
The pellet is counted for radioactivity in a γ-counter. The affinities of the antagonist peptides tested to rat pituitary GH-RH receptors are determined in competitive binding experiments. The final binding affinities are estimated by Ki (dissociation constant of the inhibitor-receptor complex) and are determined by the Ligand PC and McPherson computer programs of Munson and Rodbard (P. J. Munson and D. Rodbard, Anal. Biochem. 107. 220–239, 1980). Relative affinities compared to [Ac-Tyr^1,D-Arg^2]hGH-RH(1–29)NH2, the Standard antagonist, are calculated as the […].

[2] = tested on: hGH-RH(1–29)NH2 induced GH release; test: Inhibition of GH release in superfused rat pituitary system; assay type: cell-based; conditions: antagonist 30 nM; for Inhibition of GH release (%) 30 min: 1 nM hGH-RH(1–29)NH2 30 min later; for Inhibition of GH release (%) 60 min: 1 nM hGH-RH(1–29)NH2 60 min later; for Inhibition of GH release (%) 90 min: 1 nM hGH-RH(1–29)NH2 90 min later; for Inhibition of GH release (%) 120 min: 1 nM hGH-RH(1–29)NH2 120 min later; for Inhibition of GH release (%) 0 min: 1 nM hGH-RH(1–29)NH2 at 0 min
Experimental: Superfused Rat Pituitary System.
The analogs were tested in vitro in a test described earlier (S. Vigh and A. V. Schally, Peptides 5:241–347, 1984) with modification (Z. Rekasi and A. V. Schally, P.N.A.S. 90:2146–2149, 1993).
Briefly, the cells are preincubated with peptides for 9 minutes (3 mL) at various concentrations. Immediately after the incubation, 1 nM hGH-RH(1–29)NH2 is administered for 3 minutes (1 mL) [0 minute response]. To check the duration of the antagonistic effect of the analogue, 1 nM hGH-RH(1–29)NH2 is applied 30, 60, 90, and 120 minutes later for 3 minutes [30, 60, 90, 120 min responses]. Net integral values of the GH responses are evaluated. GH responses are compared to and expressed as percent of the original GH response induced by 1 nM GH-RH(1–29)NH2. The effect of the new antagonists are compared to that of [Ac-Tyr^1,D-Arg^2]hGH-RH(1–29)NH2, the “Standard antagonist”.
Growth Hormone Radio-immunoassay.
Rat GH levels in aliquots of undiluted and diluted superfusion samples were measured by double-antibody radioimmunoassay using materials supplied by the National Hormone and Pituitary Program, Baltimore, Md. The results of RIA were analyzed with a computer program developed in our institute (V. Csernus and A. V. Schally, in Neuroendocrine Research Methods, Harwood Academic (Greenstein, B. D. ed., London, pp. 71–109, 1991), hereby incorporated by reference. Inter-assay variation was less than 15% and intra-assay variation was less than 10%.

[3] = tested on: GH release stimulated by hGH-RH(1–29)NH2; test: In vivo inhibition of serum GH response in rats; design: species or system rat; conditions: for Inhibition of the GH release stimulated by hGH-RH(1–29)NH2 (in words): 80 μg/kg i.v., rats
Experimental: GH-RH antagonistic effect of the analogs was tested on young male Sprague-Dawley rats (200–250 g). In each experiment, 5 groups of 7 animals each were used. The compounds (80 μg/kg) and GH-RH(1–29)NH2 (3 μg/kg) were dissolved in 5.5% mannitol and given intravenously to the jugular vein of the rats under Nembutal anesthesia. The time elapsed between the administrations of the antagonist and GH-RH varied between groups, according to the following schedule. The first group of animals received GH-RH injection 5 min after the administration of the antagonist; for the second, third and fourth group of animals, the time interval elapsed between the injection of the antagonist and that of GH-RH was 15, 30, and 60 min, respectively. The control group was first injected with the solvent alone instead of the antagonist, followed by a GH-RH injection 5 min later.
0.4 mL blood samples were taken for GH RIA before the administration of the antagonist (“blood0”), and 5 min after the injection of GH-RH (“blood1”). The GH response in each group was calculated as rGH=(GHblood1/GHblood0), mean±S.E.M. of the individual differences. Relative inhibition of GH response (%) in each group treated was calculated as […].

[4] = antagonist 80 μg/kg i.v. 5 min before GH-RH
[5] = antagonist 80 μg/kg i.v. 15 min before GH-RH
[6] = antagonist 80 μg/kg i.v. 15 min before GH-RH 3 μg/kg
[7] = antagonist 80 μg/kg i.v. 30 min before GH-RH
[8] = antagonist 80 μg/kg i.v. 30 min before GH-RH 3 μg/kg
[9] = antagonist 80 μg/kg i.v. 60 min before GH-RH
[10] = antagonist 80 μg/kg i.v. 60 min before GH-RH 3 μg/kg
[11] = rGH=GHblood1/GHblood0, antagonist 80 μg/kg i.v. 5 min before GH-RH 3 μg/kg

pKi [1] | R.A. (relative affinity compared to Standard antagonist) [1] | SMILES | Inhibition of GH release (%) 30 min [2] | Inhibition of GH release (%) 60 min [2] | Inhibition of GH release (%) 90 min [2] | Inhibition of GH release (%) 120 min [2] | Inhibition of GH release (%) 0 min [2] | Inhibition of the GH release stimulated by hGH-RH(1–29)NH2 (in words) [3] | Relative inhibition % of GH response [3, 4] | Relative inhibition % of GH response [3, 5] | GH response mean ± S.E.M. [3, 6] | Relative inhibition % of GH response [3, 7] | GH response mean ± S.E.M. [3, 8] | Relative inhibition % of GH response [3, 9] | GH response mean ± S.E.M. [3, 10] | GH response mean ± S.E.M. [3, 11]
10.06 | 34 | CCCC[C@H](NC(=O)[C@@H](NC(=O)[C@H](CC(=O)O)NC(=O)[C@H](CCC(N)=O)NC(=O)[C@H](CC(C)C)NC(=O)[C@H](CC(C)C)NC(=O)[C@H](CCCCN)NC(=O)[C@H](CCCNC(=N)N)NC(=O)[C@H](C)NC(=O)[C@H](CO)NC(=O)[C@H](CC(C)C)NC(=O)[C@H](CCC(N)=O)NC(=O)[C@H](CC)NC(=O)[C@H](CC(C)C)NC(=O)[C@@H](NC(=O)[C@H](CCCCN)NC(=O)[C@H](CCCNC(=N)N)NC(=O)[C@H](Cc1ccc(O)cc1)NC(=O)[C@H](CCCCNC(=N)N)NC(=O)[C@H](CC(N)=O)NC(=O)[C@@H](NC(=O)[C@H](Cc1ccc(Cl)cc1)NC(=O)[C@@H](NC(=O)[C@H](C)NC(=O)[C@H](CC(=O)O)NC(=O)[C@@H](CCCNC(=N)N)NC(=O)[C@H](Cc1ccc(O)cc1)NC(=O)Cc1ccccc1)[C@@H](C)CC)[C@@H](C)O)C(C)C)[C@@H](C)CC)C(=O)N[C@H](CCCNC(=N)N)C(=O)N[C@@H](CCCCNC(=N)N)C(N)=O [Peptide 4, [PhAc^0, D-Arg^2, Phe(pCl)^6, Har^9, Abu^15, Nle^27, D-Arg^28, Har^29]hGH-RH(1–29)NH2] (PhAc-Y[dR]DAI[Phe(4-Cl)]TN[hArg]YRKVL[Abu]QLSARKLLQDI[Nle][dR][hArg]-NH2) | 86% | 80% | 79% | 68% | 83% | strong and long-lasting inhibition | 82% | 43% | 7.73 ± 1.12 | 7% | 12.00 ± 2.54 | 8% | 11.88 ± 0.90 | 3.08 ± 0.58
10.15 | 42 | CCCC[C@H](NC(=O)[C@@H](NC(=O)[C@H](CC(=O)O)NC(=O)[C@H](CCC(N)=O)NC(=O)[C@H](CC(C)C)NC(=O)[C@H](CC(C)C)NC(=O)[C@H](CCCCN)NC(=O)[C@H](CCCNC(=N)N)NC(=O)[C@H](C)NC(=O)[C@H](CO)NC(=O)[C@H](CC(C)C)NC(=O)[C@H](CCC(N)=O)NC(=O)[C@H](CC)NC(=O)[C@H](CC(C)C)NC(=O)[C@@H](NC(=O)[C@H](CCCCN)NC(=O)[C@H](CCCNC(=N)N)NC(=O)[C@H](Cc1ccc(OC)cc1)NC(=O)[C@H](CO)NC(=O)[C@H](CC(N)=O)NC(=O)[C@@H](NC(=O)[C@H](Cc1ccc(Cl)cc1)NC(=O)[C@@H](NC(=O)[C@H](C)NC(=O)[C@H](CC(=O)O)NC(=O)[C@@H](CCCNC(=N)N)NC(=O)[C@H](Cc1ccc(O)cc1)NC(=O)Cc1ccccc1)[C@@H](C)CC)[C@@H](C)O)C(C)C)[C@@H](C)CC)C(=O)N[C@@H](CO)C(=O)N[C@H](CCCNC(=N)N)C(N)=O [Peptide 16, [PhAc^0, D-Arg^2, Phe(pCl)^6, Tyr(Me)^10, Abu^15, Nle^27, D-Arg^29]hGH-RH(1–29)NH2] (PhAc-Y[dR]DAI[Phe(4-Cl)]TNSY(Me)RKVL[Abu]QLSARKLLQDI[Nle]S[dR]-NH2) | 87% | 83% | 56% | 65% | 65% | strong and long-lasting inhibition | 77% | 70% | 3.44 ± 0.62 | 48% | 5.24 ± 1.36 | 0% | 9.19 ± 1.89 | 2.89 ± 0.65
